# Measurements as given in ChEMBL document CHEMBL1201862, “PubChem BioAssay data set” (2004).
# Active and inactive are the calls of the source. Where a SMILES comes first, the peptide text is derived from it. [ ]: non-standard residue; d: D form. The star is where a group is joined. Ac5c = NC1(C(=O)O)CCCC1; Cbz = O=C(OCc1ccccc1)*
# Columns and labels:
# [1] = biological target: FAD-linked sulfhydryl oxidase ALR (Homo sapiens, UniProt P55789); assay: ALR-catalysed DTT oxidation blockers – biochemical, H2O2 detection, luminescence, cherry-pick, dose response (AID 493248)
# [2] = Luminescence Cell-Based Dose Retest to Confirm Inhibitors of Cancer Stem Cells. [Related pubchem assays (depositor defined):AID2717, AID2721]; format: functional; settings: Homo sapiens
# [3] = biological target: Large T antigen (Simian virus 40, UniProt P03070); format: functional, Betapolyomavirus macacae;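 note: Confirmatory-stage PubChem screen for compounds that inhibit SV40 T antigen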
# [4] = test system: Vero; assay: cells; format: functional; settings: Chlorocebus sabaeus
# [5] = biological target: Nonstructural protein 1 (Influenza A virus, UniProt Q194T2); format: functional, Influenza A virus (A/California/07/2009(H1N1))
# [6] = biological target: DNA dC->dU-editing enzyme APOBEC-3G (Homo sapiens, UniProt Q9HC16); format: functional;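 note: Dose-response counterscreen measuring inhibition of APOBEC3G DNA deaminase activity, run while confirming APOBEC3A inhibitors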
# [7] = biological target: DNA dC->dU-editing enzyme APOBEC-3A (Homo sapiens, UniProt P31941); assay: Dose Response confirmation of small molecule APOBEC3A DNA Deaminase Inhibitors via a fluorescence-based single-stranded DNA deaminase assay. [Related pubchem assays (depositor defined):AID493011, AID493024]; format: functional
# [8] = biological target: T1, Heat shock factor protein 1 (Mus musculus, UniProt P38532); assay: enhancement of HSF1-driven luciferase signal – cell-based, NIH3T3, luminescence, dose retest, confirmation (AID 435004); format: functional;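 note: stress induced by proteasome inhibitor MG132 added 30 min after compound; luciferase reporter driven by HSF1 response element in NIH3T3 cells; actives raise luminescence as potentiators of the MG132 stress response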
# T1 sequence (P38532 whole entry): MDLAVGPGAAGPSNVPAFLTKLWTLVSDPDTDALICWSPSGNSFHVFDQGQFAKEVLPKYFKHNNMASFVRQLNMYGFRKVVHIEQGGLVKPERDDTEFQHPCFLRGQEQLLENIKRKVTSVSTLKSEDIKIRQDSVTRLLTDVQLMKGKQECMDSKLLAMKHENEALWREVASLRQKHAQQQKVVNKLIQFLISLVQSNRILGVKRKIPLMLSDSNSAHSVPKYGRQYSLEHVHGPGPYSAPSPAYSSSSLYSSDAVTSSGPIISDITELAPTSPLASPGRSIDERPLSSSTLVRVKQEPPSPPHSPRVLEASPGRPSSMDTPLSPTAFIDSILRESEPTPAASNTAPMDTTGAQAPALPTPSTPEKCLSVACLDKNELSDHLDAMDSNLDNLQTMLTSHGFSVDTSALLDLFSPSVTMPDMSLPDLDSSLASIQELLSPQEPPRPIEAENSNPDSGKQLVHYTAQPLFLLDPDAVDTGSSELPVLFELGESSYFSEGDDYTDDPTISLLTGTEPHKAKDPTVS
# [9] = THP-1 cell cytotoxicity, dose response, cytotoxicity control for non-replicating M. tuberculosis project (AID 489025); format: functional
# [10] = cells; format: functional, cell-based
# [11] = cells; format: functional, cell-based; remark: listed apart in the source
# [12] = biological target: Cytochrome P450 2C19 (Homo sapiens, UniProt P33261); assay: Cytochrome panel assay with activity outcomes. Panel member name: p450-cyp2c19 Compounds with AC50 equal or less than 10 uM are considered active; format: functional; settings: read-out: AC50
# [13] = biological target: T2, Zinc finger protein mex-5 (Caenorhabditis elegans, UniProt Q9XUB2); assay: potency of MEX-5 RNA-binding blockers – biochemical, C. elegans, fluorescence polarization, dose response (AID 1960)
# T2 sequence (Q9XUB2 whole entry): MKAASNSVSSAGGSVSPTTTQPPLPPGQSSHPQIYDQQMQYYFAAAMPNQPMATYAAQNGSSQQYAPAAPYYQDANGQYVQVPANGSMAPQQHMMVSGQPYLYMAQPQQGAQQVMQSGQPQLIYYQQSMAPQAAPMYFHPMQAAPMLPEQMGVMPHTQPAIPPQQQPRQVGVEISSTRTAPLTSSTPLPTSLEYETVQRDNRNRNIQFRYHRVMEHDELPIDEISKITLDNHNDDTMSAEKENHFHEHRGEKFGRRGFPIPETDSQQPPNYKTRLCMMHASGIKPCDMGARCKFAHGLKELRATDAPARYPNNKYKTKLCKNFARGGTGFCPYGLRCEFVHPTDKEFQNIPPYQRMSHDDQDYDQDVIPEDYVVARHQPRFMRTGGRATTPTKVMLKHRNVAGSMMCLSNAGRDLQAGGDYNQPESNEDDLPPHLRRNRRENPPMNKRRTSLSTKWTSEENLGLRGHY
# [14] = biological target: T3, RNA-binding protein pos-1 (Caenorhabditis elegans, UniProt G5EF15); assay: disruptors of C. elegans POS-1 RNA interaction – biochemical, fluorescence polarization, dose response (AID 1964);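 note: purified POS-1 fused to maltose binding protein made in E. coli; potency of compounds blocking POS-1 binding to fluorescent RNA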
# T3 sequence (G5EF15 whole entry): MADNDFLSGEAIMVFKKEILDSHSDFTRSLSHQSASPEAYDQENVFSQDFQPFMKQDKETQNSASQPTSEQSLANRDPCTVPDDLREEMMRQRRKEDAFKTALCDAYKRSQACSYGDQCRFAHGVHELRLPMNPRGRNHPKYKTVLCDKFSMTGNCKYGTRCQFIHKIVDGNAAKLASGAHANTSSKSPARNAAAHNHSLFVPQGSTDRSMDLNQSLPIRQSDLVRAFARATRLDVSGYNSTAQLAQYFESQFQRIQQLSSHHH
# [15] = Luminescence Cell-Based Dose Response HTS to Identify Inhibitors of 5'UTR Stem-Loop Driven Prion Protein mRNA Translation in H4 Neuroglioblastoma Cells. [Related pubchem assays: 1827 (Project Summary), 1813 (Primary HTS)]; format: functional
# [16] = alpha-synuclein stem-loop luciferase translation blockers – H4 neuroglioma cells, luminescence, confirmation (AID 1988); format: functional, cell-based
# [17] = luciferase reporter signal suppression in cells – H4 neuroglioma cells, luminescence, dose response (AID 1990); format: functional, cell-based
# [18] = biological target: T4, Streptokinase A (Streptococcus pyogenes serotype M1, UniProt P10520); assay: viability-normalized secreted streptokinase activity reduction – plasminogen activation absorbance, OD405, dose response (AID 1914); format: functional, Streptococcus pyogenes M1 GAS;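 note: secreted streptokinase activity via plasminogen activation per viability signal from cell pellet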
# T4 sequence (P10520 whole entry): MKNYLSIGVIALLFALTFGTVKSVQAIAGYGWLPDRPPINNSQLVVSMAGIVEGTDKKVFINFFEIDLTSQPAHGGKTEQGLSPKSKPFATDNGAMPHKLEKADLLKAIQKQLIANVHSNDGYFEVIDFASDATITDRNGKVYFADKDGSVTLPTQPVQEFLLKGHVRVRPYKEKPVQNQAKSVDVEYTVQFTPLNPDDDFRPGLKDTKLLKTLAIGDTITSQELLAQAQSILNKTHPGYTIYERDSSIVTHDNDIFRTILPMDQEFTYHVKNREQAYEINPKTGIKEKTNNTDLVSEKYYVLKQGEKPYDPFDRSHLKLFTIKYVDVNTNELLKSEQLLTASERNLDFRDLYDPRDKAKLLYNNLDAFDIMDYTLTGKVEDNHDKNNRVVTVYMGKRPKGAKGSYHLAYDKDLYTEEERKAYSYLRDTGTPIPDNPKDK
# [19] = fluconazole-exposed Candida albicans growth modulators – fluorescence, retest, confirmation (AID 2467); format: functional, cell-based
# [20] = Trypanosoma cruzi growth suppression in host cells – NIH3T3 host cells, beta-gal luminescence, confirmation (AID 2044); format: functional, cell-based;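 note: intracellular parasites grown in NIH/3T3 mouse fibroblasts as host cells; luminescent beta-galactosidase reporter signal from transgenic T. cruzi replicating inside host cells; inhibitors lower the luminescence signal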
# [21] = NIH-3T3 fibroblast cytotoxicity, dose response, cytotoxicity control, cell-based, fluorescence, Alamar Blue, secondary assay (AID 2327); format: functional;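 note: NIH-3T3 mouse fibroblasts cultured with fluconazole at 8 µg/mL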
# [22] = test system: INS1; assay: INS-1E survival protection against cytokine death – cell-based, luminescence, retest, dose response (AID 449756); format: functional; settings: Rattus norvegicus;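 note: cell death triggered by IL-1 beta plus TNF-alpha plus IFN-gamma mixture; protective hits raise ATP signal compared with cytokine alone wells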
# [23] = test system: Streptococcus; assay: GAS UMAA2166 growth inhibition – luminescence, BacTiterGlo, counter-screen for streptokinase expression inhibitor project, dose response (AID 1915); format: functional, organism-based;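 note: potency for reduction of bacterial viability or growth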
# [24] = test system: Streptococcus sp. 'group A'; assay: Streptococcus pyogenes SK(-)GAS viability under kanamycin – luminescence, BacTiterGlo, confirmation, counter-screen for streptokinase expression inhibitor project, dose response (AID 1900); format: functional, organism-based
# [25] = NIH3T3 cell viability loss – ATP luminescence, mouse fibroblasts, counter-screen, dose response (AID 2010); format: functional, cell-based;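 note: cells exposed to compound for about 90 hours before reading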
# [26] = non-specific 3'UTR reporter inhibition in Clone20-Shn3RL – cell-based, Renilla luciferase, cherry-picked, counter-screen for Shn3 inhibitor project, dose response (AID 624133); format: functional
# Sequence of DNA dC->dU-editing enzyme APOBEC-3A (P31941 whole entry): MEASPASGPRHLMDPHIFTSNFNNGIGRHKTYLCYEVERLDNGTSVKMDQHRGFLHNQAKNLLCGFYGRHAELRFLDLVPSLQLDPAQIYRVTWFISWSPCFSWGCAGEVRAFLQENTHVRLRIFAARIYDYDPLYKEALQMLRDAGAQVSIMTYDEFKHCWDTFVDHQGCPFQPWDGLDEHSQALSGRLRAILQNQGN
# Sequence of DNA dC->dU-editing enzyme APOBEC-3G (Q9HC16 whole entry): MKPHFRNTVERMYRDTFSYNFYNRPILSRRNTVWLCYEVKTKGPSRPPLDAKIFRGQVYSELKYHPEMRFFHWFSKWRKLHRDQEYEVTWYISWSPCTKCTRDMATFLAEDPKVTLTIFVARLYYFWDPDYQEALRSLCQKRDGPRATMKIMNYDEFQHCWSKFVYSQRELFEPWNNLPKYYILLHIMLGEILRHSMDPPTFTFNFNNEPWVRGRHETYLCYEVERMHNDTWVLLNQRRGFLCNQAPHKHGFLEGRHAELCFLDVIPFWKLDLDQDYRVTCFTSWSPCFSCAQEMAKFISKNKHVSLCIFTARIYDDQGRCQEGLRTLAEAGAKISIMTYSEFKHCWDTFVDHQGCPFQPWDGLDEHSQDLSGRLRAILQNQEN
# Sequence of FAD-linked sulfhydryl oxidase ALR (P55789 whole entry): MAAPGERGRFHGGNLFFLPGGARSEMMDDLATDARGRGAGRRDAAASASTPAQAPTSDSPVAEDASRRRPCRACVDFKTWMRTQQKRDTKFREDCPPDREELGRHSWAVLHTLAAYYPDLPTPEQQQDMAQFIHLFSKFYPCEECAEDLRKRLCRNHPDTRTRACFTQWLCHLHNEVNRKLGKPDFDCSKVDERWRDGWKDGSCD
# Sequence of Nonstructural protein 1 (Q194T2 whole entry): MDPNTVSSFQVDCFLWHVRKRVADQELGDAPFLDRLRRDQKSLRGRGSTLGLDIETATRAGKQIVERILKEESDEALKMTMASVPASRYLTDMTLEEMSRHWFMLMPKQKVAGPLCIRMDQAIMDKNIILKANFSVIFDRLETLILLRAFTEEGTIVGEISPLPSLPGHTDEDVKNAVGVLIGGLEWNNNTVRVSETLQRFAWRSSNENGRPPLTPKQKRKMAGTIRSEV
# Sequence of Large T antigen (P03070 whole entry): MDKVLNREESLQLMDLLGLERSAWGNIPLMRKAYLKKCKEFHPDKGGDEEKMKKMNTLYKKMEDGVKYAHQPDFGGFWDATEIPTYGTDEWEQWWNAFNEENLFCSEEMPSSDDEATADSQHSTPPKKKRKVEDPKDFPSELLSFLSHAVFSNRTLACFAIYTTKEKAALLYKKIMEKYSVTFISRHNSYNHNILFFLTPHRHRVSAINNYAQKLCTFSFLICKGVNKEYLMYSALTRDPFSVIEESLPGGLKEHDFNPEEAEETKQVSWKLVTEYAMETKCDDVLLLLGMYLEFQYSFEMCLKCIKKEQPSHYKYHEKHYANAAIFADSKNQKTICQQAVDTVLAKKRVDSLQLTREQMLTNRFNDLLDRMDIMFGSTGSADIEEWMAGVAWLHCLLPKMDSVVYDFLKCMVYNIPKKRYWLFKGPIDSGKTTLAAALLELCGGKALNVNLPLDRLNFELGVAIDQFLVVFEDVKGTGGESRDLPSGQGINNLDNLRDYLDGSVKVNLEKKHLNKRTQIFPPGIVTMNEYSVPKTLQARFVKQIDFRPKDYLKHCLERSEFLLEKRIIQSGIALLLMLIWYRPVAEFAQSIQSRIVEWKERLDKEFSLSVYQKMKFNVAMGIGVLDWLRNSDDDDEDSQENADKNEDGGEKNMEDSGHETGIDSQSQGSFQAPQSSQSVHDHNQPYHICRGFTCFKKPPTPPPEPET
# Sequence of Cytochrome P450 2C19 (P33261 whole entry): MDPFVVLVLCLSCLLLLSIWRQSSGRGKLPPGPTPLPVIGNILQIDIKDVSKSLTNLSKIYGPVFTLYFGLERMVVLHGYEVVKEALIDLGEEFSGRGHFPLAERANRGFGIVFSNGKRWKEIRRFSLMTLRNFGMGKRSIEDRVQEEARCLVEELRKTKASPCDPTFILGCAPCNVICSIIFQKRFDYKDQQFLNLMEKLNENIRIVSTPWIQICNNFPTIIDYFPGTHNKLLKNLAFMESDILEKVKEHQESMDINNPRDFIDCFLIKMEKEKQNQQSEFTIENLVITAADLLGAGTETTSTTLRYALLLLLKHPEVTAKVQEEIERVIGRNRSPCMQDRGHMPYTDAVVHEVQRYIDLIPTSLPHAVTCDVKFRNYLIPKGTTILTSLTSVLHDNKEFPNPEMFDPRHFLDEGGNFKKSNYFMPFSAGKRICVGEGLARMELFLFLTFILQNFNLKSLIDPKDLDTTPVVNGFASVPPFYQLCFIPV
compound,measurement,setting,value
CN1C(=O)C(=CNNc2ccccc2)C(=O)N(C)C1=O,AC50,[1],0.031 µM (active)
same,AC50,[2],2.87 µM (active)
CCOc1ccc(NCc2cccn2-c2nnc(N3CCC(C(=O)NCCCN4CC(C)CC(C)C4)CC3)s2)cc1 (stereo unspecified),IC50,[3],19.3 µM (active)
same,CC50,[4],23.9 µM (active)
COc1ccc(N2CCN(C(CNS(=O)(=O)c3ccc(C)cc3)c3ccccc3)CC2)cc1 (stereo unspecified),IC50,[5],> 100 µM (active)
C[n+]1cccc(C(=O)NCC2CCCO2)c1 (stereo unspecified),IC50,[6],4.44 µM (active)
same,IC50,[7],2.55 µM (active)
O=C(CSC1=NCCS1)NC1CCCCC1,IC50,[6],3.76 µM (active)
same,IC50,[7],3.67 µM (active)
COc1ccc2cc(/C=C/C(=O)N3CCN(CC(=O)N4CCCCCC4)CC3)ccc2c1,EC50,[8],> 260 µM (inactive)
CC(C)(C)c1ccc(NC(=O)C2=CN3CCS(=O)(=O)N=C3C=C2)cc1,IC50,[6],8.51 µM (active)
same,IC50,[7],5.24 µM (active)
CC(C)NS(=O)(=O)c1ccc2c(c1)NCC2,AC50,[1],5.77 µM (active)
COc1ccc(NC(=O)C(=O)N2N=C3CCCCC3C2(O)C(F)(F)F)cc1 (stereo unspecified),IC50,[6],6.97 µM (active)
same,IC50,[7],6.08 µM (active)
Cc1ccc(S(=O)(=O)N2CC(O)C[C@H]2C(=O)OCC(=O)Nc2ccc(N3CCCCC3)cc2)cc1C (stereo partly specified),IC50,[5],62.8 µM (active)
O=S(=O)(c1ccc(OCC2CO2)cc1)c1ccc(OCC2CO2)cc1 (stereo unspecified),CC50,[9],32.2 µM (active)
COCc1cc(C)nc(N2CCN(Cc3ccccc3)CC2)c1C#N,IC50,[6],3.55 µM (active)
same,IC50,[7],3.15 µM (active)
COc1ccc(-c2c(C)nn3c(NC4CCCC4)cc(C)nc23)cc1OC,EC50,[8],> 260 µM (inactive)
O=C1Nc2ccc(Cl)cc2/C1=C/C1CC=CCC1 (stereo unspecified),EC50,[10],61.2 µM (active)
same,EC50,[11],> 350 µM (not active)
Cn1c(Cc2ccccc2)nnc1SCCC(=O)Nc1ccccc1,IC50,[6],4.55 µM (active)
same,IC50,[7],2.03 µM (active)
COc1ccc(N2CCN(C(=O)CN(C)S(=O)(=O)c3cc(C)ccc3OC)CC2)cc1,EC50,[10],> 350 µM (not active)
same,EC50,[11],> 350 µM (not active)
Cc1nc2ccccc2n2c(-c3ccccc3)c3c(=O)n(C)c(=O)n(C)c3c12,EC50,[10],> 350 µM (not active)
same,EC50,[11],> 350 µM (not active)
O=C1N(c2ccccc2)CCN1c1ccccc1,EC50,[8],> 260 µM (inconclusive)
COc1ccc(-c2nc(C#N)c(N3CCN(C(=O)c4ccco4)CC3)o2)cc1OC,EC50,[10],> 350 µM (not active)
same,EC50,[11],> 350 µM (not active)
CC1(c2ccccc2)CC2CC(c3ccccc3)N1O2 (stereo unspecified),EC50,[8],> 260 µM (inactive)
Oc1cc(O)nc(SCc2ccccc2)n1,AC50,[1],2.33 µM (active)
Cc1ccc(-c2nn(-c3cc(Cl)ccc3[N+](=O)[O-])c(=O)c3ccccc23)cc1,EC50,[8],> 260 µM (inactive)
COc1cccc(-c2noc(Cn3nc(C)c([N+](=O)[O-])c3C)n2)c1,AC50,[1],0.983 µM (active)
same,AC50,[12],1 µM (inconclusive)
CN(Cc1ccccc1)C(=O)CC(=O)N(C)Cc1ccccc1,EC50,[10],> 350 µM (not active)
same,EC50,[11],> 350 µM (not active)
Cc1c(NC(=O)c2cc(-n3cnnc3)ccc2Cl)cccc1-c1nc2ccccc2o1,IC50,[6],2.65 µM (active)
same,IC50,[7],2.56 µM (active)
Cc1nc2cc(N)ccc2n1C1CCCCC1,AC50,[1],0.277 µM (active)
same,EC50,[13],4.72 µM (inconclusive)
same,EC50,[14],> 300 µM (not active)
CC(C)c1ccc(CN(C)C(=O)c2ccc(S(=O)(=O)NCc3ccco3)cc2)cc1,CC50,[4],12.7 µM (active)
Nc1nonc1-n1nnc(C(=O)N/N=C/c2ccc(OCc3ccc(F)cc3)cc2)c1COc1ccccc1,CC50,[4],> 25 µM (active)
O=C(N/N=C\c1c(O)ccc2ccccc12)c1ccc(O)cc1,EC50,[15],8.71 µM (active)
same,EC50,[10],> 350 µM (not active)
same,EC50,[16],5.97 µM (active)
same,EC50,[17],10 µM (active)
same,EC50,[11],10.6 µM (active)
CCN(CC)c1ccc(/C=N/NC(=O)CNC(=O)C2COc3ccccc3O2)c(O)c1 (stereo unspecified),EC50,[18],> 150 µM (not active)
same,EC50,[15],0.646 µM (active)
same,EC50,[19],1.51 µM (active)
same,EC50,[20],1.2 µM (active)
same,EC50,[21],5.42 µM (inconclusive)
same,AC50,[22],1.31 µM (active)
same,EC50,[10],> 350 µM (not active)
same,EC50,[23],> 150 µM (not active)
same,EC50,[16],0.311 µM (active)
same,EC50,[17],0.229 µM (active)
same,EC50,[24],8.15 µM (active)
same,EC50,[25],4.2 µM (active)
same,EC50,[11],66.6 µM (active)
COc1cc(/C=N/N2CCCCC2)cc(OC)c1O,AC50,[1],0.639 µM (active)
O=C(CC(=O)N/N=C/c1ccc(O)cc1)N/N=C/c1ccc(O)cc1,AC50,[1],1.15 µM (active)
same,IC50,[3],13.8 µM (active)
CCC/C(=N/NC(=O)c1cccc(Cl)c1)c1ccccc1,EC50,[10],> 350 µM (not active)
same,EC50,[11],> 350 µM (not active)
Cn1cc(/C=N/NC(=O)c2cc3cc(Br)ccc3o2)c2ccccc21,IC50,[6],39.3 µM (active)
same,IC50,[7],3.98 µM (active)
CCOC(=O)CNC(=O)C1(NC(=O)CNC(=O)OCc2ccccc2)CCCC1 (Cbz-Gly-[Ac5c]-Gly-OEt),AC50,[26],49.2 µM (active)
